The nature of one series: Water solubility. The class given is physicochemical. As to the method:
The sample was sonicated for a period of up to 20 minutes. If a solution was not obtained, further solvent was added and the process was repeated until a clear solution was obtained, and the results were recorded. Solutions used were 50 mM potassium biphthalate (pH 4); 100 mM glycine (pH 9); 25 mM sodium carbonate and 25 mM sodium bicarbonate (pH 10); or deionized water (DI).

A further series has as its system male SA rats. Put plainly: Anticonvulsant activity, maximal electroshock (MES) model. The class given is in vivo. Conditions: Rattus norvegicus, 1 h. How it is done: The anticonvulsant activity of the tested compounds was evaluated in male SA rats (100-150 g, Simonsen) using the maximal electroshock (MES) model described in Swinyard et al., Antiepileptic Drugs, 3d Ed. at 85-102 (Levy, et al., eds.), N.Y.: Raven Press (1989). The rats were maintained on a 12/12 light/dark cycle in temperature controlled facilities with free access to food and water. For p.o. administration, the animals are fasted overnight, prior to the experiment. One hour prior to seizure testing, the animals were injected interperitoneally (ip) or orally (per os, […]) with one of various doses of test compound dissolved in DMSO or PEG 400.
This endpoint was expressed as the percentage of animals in which the response was inhibited.
(The maximal electroshock test induces tonic seizures with an electrical stimulus.)

Series [1] concerns the target partially purified pig heart adenosine kinase (Sus scrofa, UniProt A0A5G2R0F5). In words: biochemical. Conditions: pig heart adenosine kinase; 0.5 μM adenosine, pH 7.0, 20 minutes at 37° C; read-out: AK Inhibition (IC50). As to the method:
Adenosine kinase activity was measured essentially as described by Yamada et al Biochim. Biophys. Acta 660, 36-43 (1988) with a few minor modifications. Assay mixtures contained 50 mM TRIS-maleate buffer, pH 7.0, 0.1% BSA, 1 mM ATP 1 mM MgCl2, 0.5 μM [U-^14 C] adenosine (400-600 mCi/mmol) and varying duplicate concentrations of inhibitor. The reactions were initiated by addition of approximately 0.1 μU partially purified pig heart adenosine kinase, where one unit is defined as that amount of enzyme required to phosphorylate 1 μmol adenosine per minute. The reactions were incubated for 20 minutes at 37° C. The assay was quenched upon spotting 30 μL aliquots onto 2 cm^2 pieces of Whatman DE81 anion exchange paper. The paper squares were washed for 3 minutes in 6 L distilled/deionized water to remove the unreacted adenosine. […] The amount of ^14 C-AMP was quantified by scintillation counting.

The test system of the next series is Rats. Put plainly: Anti-inflammatory activity, carrageenan paw. Type of series: in vivo, rat. Conditions: 10 mg/kg, swelling after 3 hours. As to the method:
Carrageenan (Type λ) was suspended in sterile PBS at 1% (w/v), autoclaved for 30 minutes, and stored at room temperature. Rats were pretreated with vehicle or AK inhibitor (10 mg/kg) by oral gavage or i.p. administration and the volume of the left hind paw was measured using a water displacement plethysmometer (Stoelting Co., Wood Dale, Ill.). One hour after oral treatment or 30 minutes after i.p. treatment, the rats were briefly anesthetized, and 0.1 ml of the carrageenan solution was injected subcutaneously into the planar surface of the left hind paw. The ensuing paw swelling was measured by plethysmometry after 3 hours. The paw volume in millileters was subtracted from the pre-injection paw volume. Data are presented as the percent inhibition of paw swelling in AK inhibitor treated animals, compared to vehicle treated control animals.
For orientation: In the carrageenan paw model, swelling and tenderness develop within hours.

Another series relates to Female SA rats. Put plainly: Liver toxicity assay. The settings on record: iv infusion 2 x 37.5 μmole/kg, 12 hours after second dose. Type of series: in vivo, rat. How it is done: Female SA rats (150-200 g) are anesthetized with halothane and cannulated via the internal jugular vein. The animals are allowed to recover for 3 days. At this time, 37.5 μmole/kg of an AK inhibitor is dissolved in 50% PEG400 and infused through the jugular catheter over 20 minutes. Twelve hours later, an additional 37.5 μmole/kg is infused over 20 minutes (total dose=75 μmole/kg). […] Liver enzymes (serum glutamic-oxaloacetic transaminase (SGOT), serum glutamic-pyruvic transaminase (SGPT), alkaline phosphatase) and total bilirubin in the serum samples are determined by a commercial laboratory.

Another series concerns anesthetized rats. Conditions: cited from earlier work.
A further series concerns mice. Conditions: cited from earlier work.
The mark [2] stands for this setting: po, one hour after dosing, fasted.
The mark [3] stands for this setting: pH 4 (50 mM potassium biphthalate).
Where [4] appears, read: ip, 30 minutes before carrageenan.
Setting [5] is: po, one hour before carrageenan.

Structures can show the parent of a compound that is named as a salt.

The values below come from patent publication US5726302A, “Water soluble adenosine kinase inhibitors” (Gensia Inc., priority 1995, dated 1998).

Sequence of partially purified pig heart adenosine kinase (A0A5G2R0F5 1-362): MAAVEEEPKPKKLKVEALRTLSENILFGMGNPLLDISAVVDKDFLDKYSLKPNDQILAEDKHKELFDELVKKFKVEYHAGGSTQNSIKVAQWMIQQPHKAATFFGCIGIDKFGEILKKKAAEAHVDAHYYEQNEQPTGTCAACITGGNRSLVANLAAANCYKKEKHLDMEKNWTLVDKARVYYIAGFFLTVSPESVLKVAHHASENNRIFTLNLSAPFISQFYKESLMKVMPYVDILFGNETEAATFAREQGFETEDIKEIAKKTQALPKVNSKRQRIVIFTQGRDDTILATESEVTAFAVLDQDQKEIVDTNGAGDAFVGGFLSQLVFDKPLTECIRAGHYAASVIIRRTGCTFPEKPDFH

As for `C[C@H]1O[C@@H](n2cc(-c3ccccc3)c3c(Nc4ccccc4)ncnc32)[C@H](O)[C@@H]1O` [5-phenyl-4-N-phenylamino-7-(5-deoxy-1-β-D-ribofuranosyl)pyrrolo[2,3-d]pyrimidine, reference compound], the water solubility entry in “Water solubility” (pH suitable for i.v. administration (e.g. pH 4 to 10)) is given as “less than 20 μg/ml”.

Molecule `C[C@H]1O[C@@H](n2cc(-c3ccccc3)c3c(Nc4ccc(CCN5CCOCC5)cc4)ncnc32)[C@H](O)[C@@H]1O` [Compound 3, 4-N[2-(4-morpholino)ethylphenyl]amino-5-phenyl-7-(5-deoxy-β-D-ribofuranosyl)pyrrolo[2,3-d]pyrimidine] returned an ED50 with male SA rats (setting [2]) greater than 40 mg/kg. Besides, in the series “Water solubility” (setting [3]), the solubility is greater than 1000 µg/mL. Further, in series [1], the IC50 was 2 nM.

Turning to `C[C@H]1O[C@@H](n2cc(-c3ccccc3)c3c(Nc4ccc(CCN5CCNCC5)cc4)ncnc32)[C@H](O)[C@@H]1O` [Compound 4, 4-N[2-(1-piperazino)ethylphenyl]amino-5-phenyl-7-(5-deoxy-β-D-ribofuranosyl)pyrrolo[2,3-d]pyrimidine], in “Water solubility” (setting [3]), the solubility is greater than 1000 µg/mL. Besides, the figures for the “Carrageenan Paw (% inhibition) of paw swelling” value (“Carrageenan Paw (% inhibition)” below) in the series on Rats (setting [4]) and in the series on Rats (setting [5]) were 39.9% and 2.5%, respectively.

Turning to `CCN(CC)CCNCCc1ccc(Nc2ncnc3c2c(-c2ccccc2)cn3[C@@H]2O[C@H](C)[C@@H](O)[C@H]2O)cc1` [Compound 5, 4-N[2-(2-N,N-diethylaminoethyleneamino)ethylphenyl]amino-5-phenyl-7-(5-deoxy-β-D-ribofuranosyl)pyrrolo[2,3-d]pyrimidine], the solubility in “Water solubility” (deionized water (DI)) was greater than 5000 µg/mL. Also, the “Carrageenan Paw (% inhibition)” value in the series with Rats (setting [4]) is -3.4%; in the series with Rats (setting [5]), 4.1%. Also, the IC50 in series [1] came out at 1 nM.

In turn, `CCN(CC)CCc1ccc(Nc2ncnc3c2c(-c2ccccc2)cn3[C@@H]2O[C@H](C)[C@@H](O)[C@H]2O)cc1` [Compound 6, 4-N[2-N,N-diethylaminoethylphenyl]amino-5-phenyl-7-(5-deoxy-β-D-ribofuranosyl)pyrrolo[2,3-d]pyrimidine] had a solubility in “Water solubility” (setting [3]) greater than 1000 µg/mL. For the same molecule, in series [1], the IC50 amounted to 1 nM.

Turning to `C[C@H]1O[C@@H](n2cc(-c3ccccc3)c3c(Nc4ccc(CCN(C)C)cc4)ncnc32)[C@H](O)[C@@H]1O` [Compound 7, 4-N[2-N,N-dimethylaminoethylphenyl]amino-5-phenyl-7-(5-deoxy-β-D-fibofuranosyl)pyrrolo[2,3-d]pyrimidine], in “Water solubility” (setting [3]), the solubility is greater than 1000 µg/mL. Moreover, the “Carrageenan Paw (% inhibition)” value in the series on Rats (setting [4]) amounted to 19.0%; in the series on Rats (setting [5]) it was 7.7%. Besides, the IC50 in series [1] is 1 nM.

As for `C[C@H]1O[C@@H](n2cc(-c3ccccc3)c3c(Nc4ccc(NS(=O)(=O)C(F)(F)F)cc4)ncnc32)[C@H](O)[C@@H]1O` [Compound 8, 4-N-(4-N-trifluoromethanesulfonylaminophenyl)amino-5-phenyl-7-(5-deoxy-1-β-D-ribofuranosyl) pyrrolo(2,3-d)pyrimidine], in the series “Water solubility” (sodium carbonate/sodium bicarbonate buffer, pH 10 (25 mM sodium carbonate and 25 mM sodium bicarbonate)), the solubility is greater than 1000 µg/mL.

As to `C[C@H]1O[C@@H](n2cc(-c3ccccc3)c3c(Nc4ccc(CCN)cc4)ncnc32)[C@H](O)[C@@H]1O` [Compound 22, 4-N-(2-Aminoethylphenyl)amino-5-phenyl-7-(5-deoxy-β-D-ribofuranosyl)pyrrolo[2,3-d]pyrimidine], in “Water solubility” (setting [3]), the solubility was greater than 1000 µg/mL. For the same molecule, the “Carrageenan Paw (% inhibition)” value with Rats (setting [4]) worked out at 31.6%; with Rats (setting [5]) it was 12.4%.

Consider `C[C@H]1O[C@@H](n2cc(-c3ccccc3)c3c(Nc4ccc(C(N)=NO)cc4)ncnc32)[C@H](O)[C@@H]1O` [Compound 37, 4-N-(4-amidoximephenyl)amino-5-phenyl-7-(5-deoxy-1-β-D-ribofuranosylpyrrolo[2,3-d]pyrimidine hydrochloride], for which, in series [1], the IC50 was 5 nM.

In the series on male SA rats (ip), `CC(=O)NS(=O)(=O)c1ccc(Nc2ncnc3c2c(-c2ccccc2)cn3[C@@H]2O[C@H](C)[C@@H](O)[C@H]2O)cc1` [Compound 40] showed an ED50 greater than 5 mg/kg. This molecule had a solubility in the series “Water solubility” (pH 9 (100 mM glycine)) greater than 1000 µg/mL. Moreover, the IC50 in series [1] was 3000 nM.

Molecule `C[C@H]1O[C@@H](n2cc(I)c3c(NCc4ccncc4)ncnc32)[C@H](O)[C@@H]1O` [Compound 42, 4-N-(4-pyridylmethylamino)-5-iodo-7-(5-deoxy-1-β-D-ribofuranosyl)pyrrolo[2,3-d]pyrimidine] yielded an ED50 in the series on male SA rats (ip) of 2 mg/kg.

As to `C[C@H]1O[C@@H](n2cc(I)c3c(NCc4cccnc4)ncnc32)[C@H](O)[C@@H]1O` [Compound 44, 4-N-(3-pyridylmethylamino)-5-iodo-7-(5-deoxy-1-β-D-ribofuranosyl)pyrrolo[2,3-d]pyrimidine], in series [1], the IC50 was 120 nM.

For the molecule `C[C@H]1O[C@@H](n2cc(I)c3c(NCc4nc5ccccc5[nH]4)ncnc32)[C@H](O)[C@@H]1O` [Compound 45, 4-N-(2-benzimidazolylmethyl)amino-5-iodo-7-(5-deoxy-1-β-D-ribofuranosyl) pyrrolo[(2,3-d)]pyrimidine], the IC50 in series [1] is 500 nM.

Take `OC[C@@H]1O[C@@H](n2cc(I)c3c(NCc4ccccn4)ncnc32)[C@H](O)[C@@H]1O` [Compound 46, 4-N-(2-pyridylmethyl)amino-5-iodo-7-(α-L-lyxofuranosyl)pyrrolo(2,3-d)pyrimidine]: the IC50 in series [1] is 220 nM.

Consider `C[C@H]1O[C@@H](n2cc(-c3cccnc3)c3c(Nc4ccccc4)ncnc32)[C@H](O)[C@@H]1O` [Compound 47, 4-N-Phenylamino-5-(3-pyridino)-7-(5-deoxy-1-β-D-ribofuranosyl) pyrrolo[2,3-d]pyrimidine], for which the “Carrageenan Paw (% inhibition)” value with Rats (setting [4]) is -4.4%; with Rats (setting [5]), 9.8%. Also, the IC50 in series [1] came out at 55 nM.

Turning to `C[C@H]1O[C@@H](n2cc(-c3cccnc3)c3c(NCc4ccccn4)ncnc32)[C@H](O)[C@@H]1O` [Compound 48, 4-N-(2-pyridylmethyl)amino-5-(3-pyridino)-7-(5-deoxy-1-β-D-ribofuranosyl)pyrrolo[2,3-d]pyrimidine], in series [1], the IC50 amounted to 300 nM.

In the series on male SA rats (setting [2]), `C[C@H]1O[C@@H](n2cc(-c3ccccc3)c3c(NCc4ccncc4)ncnc32)[C@H](O)[C@@H]1O` [Compound 49, 4-N-(4-pyridylmethyl)amino-5-phenyl-7-(5-deoxy-1-β-D-ribofuranosyl)-pyrrolo[2,3-d]pyrimidine] came in with an ED50 of 40 mg/kg. In addition, the IC50 in series [1] was found to be 67 nM.

Consider `C[C@H]1O[C@@H](n2cc(I)c3c(N)ncnc32)[C@H](O)[C@@H]1O` [REF. A], for which, in the series on Female SA rats, the “Alkaline Phosphatase” value was 163 IU/L, the SGOT came out at 508 IU/L, the SGPT turned out to be 76 IU/L and the “Total Bilirubin” value amounted to 0.76 mg/dL. Moreover, in the series on anesthetized rats, the blood pressure entry is “decrease blood pressure”; the heart rate entry is “decrease blood pressure and heart rate”. In addition, in the series with mice, the “general flaccidity (skeletal muscle relaxation)” value is on record as “pronounced general flaccidity”, the hypothermia result is given as “hypothermia” and the spontaneous locomotor activity entry was “much-reduced spontaneous locomotor activity”.

As for `NC[C@H]1O[C@@H](n2nc(Br)c3c(N)ncnc32)[C@H](O)[C@@H]1O` [REF. B, 4amino-1-(5-amino-5-deoxy-1-D-ribofuranosyl)-3-bromopyrazolo[3,4d]pyrimidne HCL], in the series with Female SA rats, the “Alkaline Phosphatase” value is on record as 113 IU/L, the SGOT was determined as 100 IU/L, the SGPT was determined as 41 IU/L and the “Total Bilirubin” value is listed as 0.30 mg/dL.

Broadly, the ED50 is the dose at which the effect has come halfway, by size or by number of responders. Low readings indicate an effect at a small dose, high ones a need for a large dose. The solubility is how much of the substance goes into solution per volume. As usually defined, the IC50 is the concentration that gives 50% inhibition.
